Assay results published in ChEMBL document CHEMBL1201862, “PubChem BioAssay data set” (2004).
Calls of active or inactive are those of the source.

Columns and labels:
[1] = Counterscreen for IDE inhibitors: Luminescence-based cell-based high throughput dose response assay to identify compounds that are cytotoxic to HEK cells. [Related pubchem assays: 434962 (Primary screen (IDE inhibitors in singlicate)), 449730 (Counterscreen (Cytotoxicity in triplicate)), 435028 (Confirmation (IDE inhibitors in triplicate)) …; assay type: functional; conditions: HEK293
[2] = biological target: T1, Voltage-gated N-type calcium channel alpha-1B subunit/Amyloid beta A4 precursor protein-binding family A member 1 (Homo sapiens, UniProt Q00975+Q02410); assay type: protein assay
[3] = biological target: T1, Voltage-gated N-type calcium channel alpha-1B subunit/Amyloid beta A4 precursor protein-binding family A member 1; assay type: protein assay; remark: listed apart in the source
Insulin-degrading enzyme = biological target: T2, Insulin-degrading enzyme (Homo sapiens, UniProt P14735); assay: Dose Response: Fluorescence polarization-based cell-based high throughput dose response assay for inhibitors of insulin-degrading enzyme (IDE). [Related pubchem assays: 434962 (Primary screen (IDE inhibitors in singlicate)), 449730 (Counterscreen (Cytotoxicity in triplicate)), 435028 (Confirmation (IDE inhibitors in triplicate)), 434984 (Summary …; assay type: functional
T2 sequence (P14735 whole entry): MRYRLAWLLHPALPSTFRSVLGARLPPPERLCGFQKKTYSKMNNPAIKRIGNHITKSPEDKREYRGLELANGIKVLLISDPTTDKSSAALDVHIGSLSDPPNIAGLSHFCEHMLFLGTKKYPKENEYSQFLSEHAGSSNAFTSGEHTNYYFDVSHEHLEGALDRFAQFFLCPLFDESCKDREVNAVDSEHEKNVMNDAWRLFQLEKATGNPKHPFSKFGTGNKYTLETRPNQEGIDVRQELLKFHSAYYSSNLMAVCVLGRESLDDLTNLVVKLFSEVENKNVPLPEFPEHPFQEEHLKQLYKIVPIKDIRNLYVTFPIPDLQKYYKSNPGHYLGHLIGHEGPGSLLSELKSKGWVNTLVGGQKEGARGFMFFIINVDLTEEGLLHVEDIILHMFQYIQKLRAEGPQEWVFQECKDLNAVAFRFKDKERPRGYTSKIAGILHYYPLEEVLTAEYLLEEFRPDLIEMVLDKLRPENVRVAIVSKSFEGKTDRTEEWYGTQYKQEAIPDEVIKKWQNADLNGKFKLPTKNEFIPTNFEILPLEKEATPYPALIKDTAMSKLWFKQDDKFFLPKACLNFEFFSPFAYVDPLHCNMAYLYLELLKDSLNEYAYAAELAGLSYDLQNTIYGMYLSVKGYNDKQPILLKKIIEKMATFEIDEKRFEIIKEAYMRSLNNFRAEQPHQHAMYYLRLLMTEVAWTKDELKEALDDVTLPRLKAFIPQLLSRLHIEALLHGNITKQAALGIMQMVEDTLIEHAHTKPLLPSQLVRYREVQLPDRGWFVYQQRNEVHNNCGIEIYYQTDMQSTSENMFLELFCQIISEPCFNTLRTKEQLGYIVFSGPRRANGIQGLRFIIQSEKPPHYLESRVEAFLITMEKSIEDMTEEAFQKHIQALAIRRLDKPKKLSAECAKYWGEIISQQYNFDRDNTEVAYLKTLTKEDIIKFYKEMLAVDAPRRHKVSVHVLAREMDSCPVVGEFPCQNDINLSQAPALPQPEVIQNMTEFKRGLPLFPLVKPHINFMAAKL

[4] = biological target: DNA dC->dU-editing enzyme APOBEC-3A (Homo sapiens, UniProt P31941); assay: A3A deaminase inhibition for selectivity – biochemical, dose response (AID 504722); assay type: functional
[5] = biological target: Glucose-6-phosphate 1-dehydrogenase (Homo sapiens, UniProt P11413); assay: inhibition of Homo sapiens G6PD, dose series – biochemical, fluorescence, selectivity assay for P. falciparum G6PD inhibitor project, dose response (AID 504792); assay type: functional
[6] = A cytotoxicity screen of small molecule inhibitors of the PhoP region in Salmonella typhi identified in the primary screen. [Related pubchem assays: 1850, 1864, 1985 ]; assay type: functional
Protein Rev = Protein Rev (Human immunodeficiency virus type 1 group M subtype B (isolate WMJ22)(HIV-1), UniProt P05866); assay: inhibitors of Rev protein–RRE RNA complex – biochemical, protein-RNA interaction, dose response (AID 842); set-up: species or system Human immunodeficiency virus 1
[7] = Luminescence Cell-Based Dose Retest to Confirm Inhibitors of Cancer Stem Cells. [Related pubchem assays (depositor defined):AID2717, AID2721]; assay type: functional, Homo sapiens; conditions: Homo sapiens
[8] = biological target: T3, Rac GTPase-activating protein 1 (Homo sapiens, UniProt Q9H0H5); assay: blockers of MgcRacGAP-driven Rac1 GTP hydrolysis – biochemical, ADP Hunter fluorescence, primary and confirmatory, confirmation (AID 624330); assay type: functional
T3 sequence (Q9H0H5 whole entry): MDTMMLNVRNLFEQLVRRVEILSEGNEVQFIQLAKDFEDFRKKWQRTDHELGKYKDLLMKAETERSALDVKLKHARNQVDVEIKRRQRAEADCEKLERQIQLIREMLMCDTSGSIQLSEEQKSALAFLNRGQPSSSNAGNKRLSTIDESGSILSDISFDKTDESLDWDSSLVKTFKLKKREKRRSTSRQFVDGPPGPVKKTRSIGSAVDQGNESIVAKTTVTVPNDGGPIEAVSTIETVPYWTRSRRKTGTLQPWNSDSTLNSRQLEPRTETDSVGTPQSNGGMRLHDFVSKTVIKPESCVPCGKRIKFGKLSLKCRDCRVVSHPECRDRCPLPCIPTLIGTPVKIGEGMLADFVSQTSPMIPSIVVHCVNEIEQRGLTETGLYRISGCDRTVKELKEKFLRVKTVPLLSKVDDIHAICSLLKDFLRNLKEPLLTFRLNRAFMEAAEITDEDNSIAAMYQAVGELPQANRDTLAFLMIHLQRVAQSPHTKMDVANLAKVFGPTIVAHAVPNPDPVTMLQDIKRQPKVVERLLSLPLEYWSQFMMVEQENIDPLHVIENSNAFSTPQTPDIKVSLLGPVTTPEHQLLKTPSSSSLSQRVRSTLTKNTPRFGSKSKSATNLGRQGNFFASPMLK

[9] = biological target: T4, Histone-lysine N-methyltransferase NSD2 (Homo sapiens, UniProt O96028); assay type: biochemical
T4 sequence (O96028 whole entry): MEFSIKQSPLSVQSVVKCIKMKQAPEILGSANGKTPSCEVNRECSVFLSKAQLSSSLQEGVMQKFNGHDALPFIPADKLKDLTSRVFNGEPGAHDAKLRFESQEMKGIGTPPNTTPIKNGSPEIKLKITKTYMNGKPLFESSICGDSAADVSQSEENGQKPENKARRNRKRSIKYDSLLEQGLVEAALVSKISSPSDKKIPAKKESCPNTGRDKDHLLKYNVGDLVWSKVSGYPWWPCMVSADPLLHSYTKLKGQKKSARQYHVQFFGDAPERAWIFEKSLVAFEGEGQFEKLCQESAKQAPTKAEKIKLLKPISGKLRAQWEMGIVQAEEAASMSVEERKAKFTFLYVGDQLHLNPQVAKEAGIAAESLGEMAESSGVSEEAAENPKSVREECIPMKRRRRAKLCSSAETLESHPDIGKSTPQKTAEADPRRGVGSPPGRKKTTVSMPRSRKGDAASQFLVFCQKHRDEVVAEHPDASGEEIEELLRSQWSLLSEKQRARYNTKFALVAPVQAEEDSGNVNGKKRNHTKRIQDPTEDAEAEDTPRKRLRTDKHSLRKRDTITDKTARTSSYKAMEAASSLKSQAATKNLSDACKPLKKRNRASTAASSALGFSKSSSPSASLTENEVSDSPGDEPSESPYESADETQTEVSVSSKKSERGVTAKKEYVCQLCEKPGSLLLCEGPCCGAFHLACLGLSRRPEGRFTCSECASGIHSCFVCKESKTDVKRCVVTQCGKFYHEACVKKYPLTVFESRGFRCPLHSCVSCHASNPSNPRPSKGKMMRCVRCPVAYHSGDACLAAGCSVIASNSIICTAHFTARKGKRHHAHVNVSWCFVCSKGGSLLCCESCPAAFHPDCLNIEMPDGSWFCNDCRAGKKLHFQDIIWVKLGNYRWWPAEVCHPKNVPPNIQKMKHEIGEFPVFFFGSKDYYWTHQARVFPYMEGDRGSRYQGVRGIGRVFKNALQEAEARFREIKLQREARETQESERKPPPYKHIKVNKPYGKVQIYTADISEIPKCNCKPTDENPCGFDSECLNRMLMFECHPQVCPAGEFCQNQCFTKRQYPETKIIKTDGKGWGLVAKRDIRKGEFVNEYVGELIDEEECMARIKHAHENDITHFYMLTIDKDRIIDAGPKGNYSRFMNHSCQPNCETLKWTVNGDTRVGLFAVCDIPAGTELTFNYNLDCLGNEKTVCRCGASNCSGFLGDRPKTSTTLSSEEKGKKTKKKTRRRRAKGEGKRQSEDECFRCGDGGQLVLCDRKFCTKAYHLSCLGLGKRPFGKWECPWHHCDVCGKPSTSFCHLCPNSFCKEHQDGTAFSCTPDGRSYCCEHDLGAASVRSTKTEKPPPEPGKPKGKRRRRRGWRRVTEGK

[10] = viability of uninfected HEp-2 cells – cell-based, HTS, cytotoxicity control for RSV inhibitor project, dose response (AID 2410); assay type: functional; conditions: human respiratory syncytial virus
[11] = antiviral protection against BTV-induced cell death – arbovirus, BSR cells, confirmation (AID 1250); assay type: functional;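 also: protection from viral cytopathic effect measured as cell viability by ATP luminescence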
Genome polyprotein = Genome polyprotein (dengue virus type 2, UniProt P29990); assay: flavivirus cap methylation enzyme inhibition – biochemical, confirmation dose response, primary screen (AID 588689); assay type: functional
[12] = biological target: T5, Long-chain-fatty-acid--AMP ligase FadD28 (Mycobacterium tuberculosis, UniProt P9WQ59); assay: Fluorescence polarization aasay to screen for inhibitors that compete for the binding of FadD28 to a bisubstrate Measured in Biochemical System Using Plate Reader - 2147-01_Inhibitor_Dose_CherryPick_Activity.; assay type: functional, Mycobacterium tuberculosis H37Rv
T5 sequence (P9WQ59 whole entry): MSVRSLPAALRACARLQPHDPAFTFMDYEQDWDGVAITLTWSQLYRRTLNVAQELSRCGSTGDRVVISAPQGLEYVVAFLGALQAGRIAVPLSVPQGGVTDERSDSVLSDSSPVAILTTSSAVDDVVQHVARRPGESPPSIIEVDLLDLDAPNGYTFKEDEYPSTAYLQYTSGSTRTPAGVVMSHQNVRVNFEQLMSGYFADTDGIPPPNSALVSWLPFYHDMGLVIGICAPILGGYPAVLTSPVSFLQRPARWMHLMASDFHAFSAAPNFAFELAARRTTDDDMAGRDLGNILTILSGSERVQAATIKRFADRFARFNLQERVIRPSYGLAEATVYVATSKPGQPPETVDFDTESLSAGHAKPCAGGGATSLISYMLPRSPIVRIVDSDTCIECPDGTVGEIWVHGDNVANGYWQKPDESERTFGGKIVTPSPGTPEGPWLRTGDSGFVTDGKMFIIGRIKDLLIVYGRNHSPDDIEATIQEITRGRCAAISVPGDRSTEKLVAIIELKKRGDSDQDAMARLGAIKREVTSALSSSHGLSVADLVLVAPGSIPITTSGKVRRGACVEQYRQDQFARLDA

[13] = Trypanosoma cruzi growth suppression in host cells – NIH3T3 host cells, beta-gal luminescence, confirmation (AID 2044); assay type: functional, cell-based;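 also: intracellular parasites grown in NIH/3T3 mouse fibroblasts as host cells; luminescent beta-galactosidase reporter signal from transgenic T. cruzi replicating inside host cells; inhibitors lower the luminescence signal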
[14] = NIH3T3 cell viability loss – ATP luminescence, mouse fibroblasts, counter-screen, dose response (AID 2010); assay type: functional, cell-based; conditions: NIH3T3;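 also: cells exposed to compound for about 90 hours before reading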
[15] = biological target: SWI/SNF-related matrix-associated actin-dependent regulator of chromatin subfamily A member 2 (Homo sapiens, UniProt P51531); assay: Luminescence-based cell-based high throughput dose response assay to identify activators of the function of SWI/SNF related, matrix associated, actin dependent regulator of chromatin, subfamily a, member 2 (SMARCA2, BRM).; assay type: functional
[16] = Counterscreen for activators of the function of SWI/SNF related, matrix associated, actin dependent regulator of chromatin, subfamily a, member 2 (SMARCA2, BRM): Luminescence-based cell-based high throughput dose response assay to identify non-selective compounds using the VP16 reporter assay.; assay type: functional

T1 sequence (Q00975 whole entry): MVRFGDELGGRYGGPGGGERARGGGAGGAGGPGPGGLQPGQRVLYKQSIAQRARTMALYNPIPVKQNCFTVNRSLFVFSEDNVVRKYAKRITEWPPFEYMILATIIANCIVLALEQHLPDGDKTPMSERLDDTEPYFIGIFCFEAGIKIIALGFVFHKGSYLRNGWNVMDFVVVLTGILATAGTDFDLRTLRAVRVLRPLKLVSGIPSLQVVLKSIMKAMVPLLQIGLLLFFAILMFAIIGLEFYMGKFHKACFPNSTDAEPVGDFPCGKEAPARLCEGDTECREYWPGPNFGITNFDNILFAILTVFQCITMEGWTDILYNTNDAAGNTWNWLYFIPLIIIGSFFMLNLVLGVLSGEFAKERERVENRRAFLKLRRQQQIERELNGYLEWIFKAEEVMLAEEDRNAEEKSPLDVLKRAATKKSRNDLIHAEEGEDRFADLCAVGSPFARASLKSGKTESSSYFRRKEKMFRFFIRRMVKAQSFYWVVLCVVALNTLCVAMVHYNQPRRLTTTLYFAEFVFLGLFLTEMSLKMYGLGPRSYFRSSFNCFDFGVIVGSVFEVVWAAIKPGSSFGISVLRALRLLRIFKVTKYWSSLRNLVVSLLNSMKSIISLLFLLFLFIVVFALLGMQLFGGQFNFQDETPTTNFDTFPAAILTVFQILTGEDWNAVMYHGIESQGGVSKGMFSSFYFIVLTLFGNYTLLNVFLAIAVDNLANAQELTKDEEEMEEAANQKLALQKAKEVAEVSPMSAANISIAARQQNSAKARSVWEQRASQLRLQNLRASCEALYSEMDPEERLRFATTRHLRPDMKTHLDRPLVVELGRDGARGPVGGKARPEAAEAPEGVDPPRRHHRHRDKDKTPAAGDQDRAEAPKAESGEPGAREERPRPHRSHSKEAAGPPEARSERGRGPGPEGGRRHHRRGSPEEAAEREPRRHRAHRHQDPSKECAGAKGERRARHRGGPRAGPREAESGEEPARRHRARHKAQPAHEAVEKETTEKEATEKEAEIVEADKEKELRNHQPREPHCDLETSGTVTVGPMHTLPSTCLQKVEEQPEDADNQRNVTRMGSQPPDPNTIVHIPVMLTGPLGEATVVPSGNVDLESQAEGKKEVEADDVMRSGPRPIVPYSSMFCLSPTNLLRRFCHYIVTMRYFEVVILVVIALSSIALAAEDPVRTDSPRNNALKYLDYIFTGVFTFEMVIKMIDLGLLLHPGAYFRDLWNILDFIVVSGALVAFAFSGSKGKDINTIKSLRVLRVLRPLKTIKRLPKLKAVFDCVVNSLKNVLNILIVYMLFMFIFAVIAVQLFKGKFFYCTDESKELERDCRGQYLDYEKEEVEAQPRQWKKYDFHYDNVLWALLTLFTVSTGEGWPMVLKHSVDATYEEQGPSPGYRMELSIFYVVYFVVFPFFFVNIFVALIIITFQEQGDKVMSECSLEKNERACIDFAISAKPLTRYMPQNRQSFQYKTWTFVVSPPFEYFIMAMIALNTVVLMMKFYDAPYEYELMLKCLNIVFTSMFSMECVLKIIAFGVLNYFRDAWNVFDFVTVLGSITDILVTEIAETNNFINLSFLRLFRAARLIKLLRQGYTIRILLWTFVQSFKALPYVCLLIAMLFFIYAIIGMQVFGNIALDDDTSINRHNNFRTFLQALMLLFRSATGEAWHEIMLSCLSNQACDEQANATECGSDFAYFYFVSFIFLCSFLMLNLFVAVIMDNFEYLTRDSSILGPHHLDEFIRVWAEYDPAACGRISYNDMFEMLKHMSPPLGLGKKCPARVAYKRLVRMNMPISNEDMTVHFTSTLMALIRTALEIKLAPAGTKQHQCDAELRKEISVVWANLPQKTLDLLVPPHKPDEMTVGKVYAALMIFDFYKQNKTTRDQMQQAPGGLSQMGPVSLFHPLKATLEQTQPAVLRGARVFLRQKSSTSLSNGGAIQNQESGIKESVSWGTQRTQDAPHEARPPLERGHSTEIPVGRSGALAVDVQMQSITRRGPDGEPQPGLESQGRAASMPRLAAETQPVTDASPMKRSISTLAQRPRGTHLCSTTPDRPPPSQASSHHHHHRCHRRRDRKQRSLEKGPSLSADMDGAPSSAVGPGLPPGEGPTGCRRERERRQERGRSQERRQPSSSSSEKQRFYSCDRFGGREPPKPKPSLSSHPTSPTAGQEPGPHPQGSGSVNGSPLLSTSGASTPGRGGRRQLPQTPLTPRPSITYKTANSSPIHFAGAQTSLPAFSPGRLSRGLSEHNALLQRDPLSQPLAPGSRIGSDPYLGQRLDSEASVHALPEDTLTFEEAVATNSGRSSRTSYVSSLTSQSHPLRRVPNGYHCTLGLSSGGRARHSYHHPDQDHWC
T1 sequence (Q02410 whole entry): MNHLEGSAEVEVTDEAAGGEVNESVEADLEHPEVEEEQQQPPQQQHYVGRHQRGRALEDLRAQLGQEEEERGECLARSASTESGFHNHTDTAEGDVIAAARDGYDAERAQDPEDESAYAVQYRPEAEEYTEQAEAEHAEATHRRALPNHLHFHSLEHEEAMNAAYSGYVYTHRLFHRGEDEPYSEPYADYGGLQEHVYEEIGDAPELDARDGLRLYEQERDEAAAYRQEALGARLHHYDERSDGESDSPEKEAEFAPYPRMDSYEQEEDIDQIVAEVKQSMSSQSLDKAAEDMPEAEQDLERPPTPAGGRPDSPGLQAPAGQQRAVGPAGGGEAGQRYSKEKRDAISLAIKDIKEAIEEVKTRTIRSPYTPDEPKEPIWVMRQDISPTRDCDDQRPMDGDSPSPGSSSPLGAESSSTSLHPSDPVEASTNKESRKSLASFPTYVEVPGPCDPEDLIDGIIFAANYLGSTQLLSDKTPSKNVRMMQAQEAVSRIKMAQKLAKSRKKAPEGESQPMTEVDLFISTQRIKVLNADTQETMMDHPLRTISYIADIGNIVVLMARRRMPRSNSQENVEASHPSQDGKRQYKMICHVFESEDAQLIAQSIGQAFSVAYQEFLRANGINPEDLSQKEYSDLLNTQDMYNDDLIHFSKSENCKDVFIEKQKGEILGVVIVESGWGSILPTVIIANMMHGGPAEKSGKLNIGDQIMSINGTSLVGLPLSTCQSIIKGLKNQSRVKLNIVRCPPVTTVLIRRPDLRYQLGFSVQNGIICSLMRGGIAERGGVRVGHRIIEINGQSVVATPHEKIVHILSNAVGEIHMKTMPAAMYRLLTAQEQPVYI
Protein Rev, sequence (P05866 whole entry): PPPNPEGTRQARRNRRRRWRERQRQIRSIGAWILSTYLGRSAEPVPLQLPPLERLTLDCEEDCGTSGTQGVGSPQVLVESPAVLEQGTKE
DNA dC->dU-editing enzyme APOBEC-3A, sequence (P31941 whole entry): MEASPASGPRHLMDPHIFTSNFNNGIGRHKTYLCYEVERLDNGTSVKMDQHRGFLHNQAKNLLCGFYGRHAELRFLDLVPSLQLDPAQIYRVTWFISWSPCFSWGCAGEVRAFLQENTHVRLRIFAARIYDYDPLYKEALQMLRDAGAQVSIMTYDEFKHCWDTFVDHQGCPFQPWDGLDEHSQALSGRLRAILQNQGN
Glucose-6-phosphate 1-dehydrogenase, sequence (P11413 whole entry): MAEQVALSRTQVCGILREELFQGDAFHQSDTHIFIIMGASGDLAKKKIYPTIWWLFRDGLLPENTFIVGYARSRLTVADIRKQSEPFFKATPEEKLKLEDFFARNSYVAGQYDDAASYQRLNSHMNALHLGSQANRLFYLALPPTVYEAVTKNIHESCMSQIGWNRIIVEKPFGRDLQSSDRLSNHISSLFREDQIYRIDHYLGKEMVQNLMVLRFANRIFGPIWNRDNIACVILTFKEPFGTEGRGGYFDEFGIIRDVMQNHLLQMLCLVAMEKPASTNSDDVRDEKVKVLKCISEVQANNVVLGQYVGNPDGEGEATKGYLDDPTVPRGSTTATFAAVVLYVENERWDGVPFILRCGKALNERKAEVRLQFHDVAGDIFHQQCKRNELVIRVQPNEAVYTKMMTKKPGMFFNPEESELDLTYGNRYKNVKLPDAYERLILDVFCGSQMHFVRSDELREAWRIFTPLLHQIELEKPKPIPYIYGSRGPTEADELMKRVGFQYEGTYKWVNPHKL
Genome polyprotein, sequence (P29990 2492-3391 limits assumed): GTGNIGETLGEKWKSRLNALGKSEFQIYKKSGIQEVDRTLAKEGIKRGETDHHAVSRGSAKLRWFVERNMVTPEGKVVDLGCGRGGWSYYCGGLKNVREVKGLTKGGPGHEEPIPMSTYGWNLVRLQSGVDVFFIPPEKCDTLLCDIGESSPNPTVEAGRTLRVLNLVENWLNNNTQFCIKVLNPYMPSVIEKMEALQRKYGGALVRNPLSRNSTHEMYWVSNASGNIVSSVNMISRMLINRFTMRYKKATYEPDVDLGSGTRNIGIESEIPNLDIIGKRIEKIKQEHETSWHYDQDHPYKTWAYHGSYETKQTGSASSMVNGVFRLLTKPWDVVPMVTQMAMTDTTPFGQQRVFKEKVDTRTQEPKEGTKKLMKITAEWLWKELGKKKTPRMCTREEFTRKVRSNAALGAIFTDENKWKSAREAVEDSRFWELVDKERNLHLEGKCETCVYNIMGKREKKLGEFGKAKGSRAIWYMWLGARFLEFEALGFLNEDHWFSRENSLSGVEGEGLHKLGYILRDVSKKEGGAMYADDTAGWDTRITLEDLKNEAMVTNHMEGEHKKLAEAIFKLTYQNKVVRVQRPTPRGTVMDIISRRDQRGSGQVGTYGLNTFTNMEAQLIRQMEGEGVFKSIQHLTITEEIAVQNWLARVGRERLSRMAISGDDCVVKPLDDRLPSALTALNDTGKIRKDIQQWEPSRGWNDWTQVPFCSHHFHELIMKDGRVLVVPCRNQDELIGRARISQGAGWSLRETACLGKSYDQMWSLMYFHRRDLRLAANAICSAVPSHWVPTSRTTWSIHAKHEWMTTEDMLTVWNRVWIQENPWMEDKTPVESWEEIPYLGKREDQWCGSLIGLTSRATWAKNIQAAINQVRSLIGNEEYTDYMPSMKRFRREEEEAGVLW

## COc1ccc(OC)c(-n2c(SCC(=O)NCc3ccco3)nnc2-c2c[nH]c3ccccc23)c1
cells
  IC50: > 50 µM (active)

## Cc1cc(C)c2c(=O)n(CC(=O)Nc3ccc(Br)c(C)c3)sc2n1
[1]
  IC50: 17.5 µM (not active)
[2]
  IC50: > 56.8 µM (not active)
[3]
  IC50: > 50 µM (inactive)
Insulin-degrading enzyme
  IC50: 4.54 µM (active)
[4]
  IC50: > 100 µM (inactive)
[5]
  IC50: 49.2 µM (inactive)

## O=C(Cc1ccc(Br)cc1)c1ccc(O)cc1O
[6]
  EC50: > 50 µM (active)

## COc1cccc(CNS(=O)(=O)c2ccc3c(c2)NC(=O)CS3)c1
[6]
  EC50: > 50 µM (active)

## COc1ccccc1NC1=NC(c2ccc(Cl)cc2)N=C(N)N1 (stereo unspecified)
Protein Rev
  IC50: > 79.4 µM (not active)

## N#C/C(=C/c1ccc(O)c(O)c1)C(=O)NCc1ccc(Cl)cc1
[1]
  IC50: 35.9 µM (not active)
Insulin-degrading enzyme
  IC50: 11.6 µM (not active)
[7]
  AC50: 6.32 µM (active)
[8]
  IC50: 34.5 µM (active)
[9]
  AC50: 5.16 µM (active)

## O=C(O)CC/C(=C\c1ccc(N2CCCC2)c([N+](=O)[O-])c1)c1nc2ccccc2s1
[10]
  CC50: 33.3 µM (active)
[11]
  IC50: 27.8 µM (active)
Genome polyprotein
  IC50: 43.1 µM (active)
[12]
  AC50: > 100 µM (inactive)

## Cc1nc(Nc2ccncc2)c2oc3ccccc3c2n1
Protein Rev
  IC50: > 79.4 µM (not active)
[13]
  EC50: 2.47 µM (active)
[14]
  EC50: > 60 µM (not active)
[15]
  EC50: > 91.2 µM (inactive)
[16]
  EC50: > 91.2 µM (inactive)

## CC(=N)/C(C#N)=C(/O)COc1ccc(Cl)cc1Cl
[10]
  CC50: > 50 µM (active)
cells
  IC50: 49.6 µM (active)
